Laboratory results: ChEMBL document CHEMBL4513139, “CO-ADD screening of University of Strathclyde (UK) compounds”
≈ marks a conversion by molar mass, not a printed value.

Legend:
[1] = test system: Klebsiella pneumoniae; test: microbe, parasite or virus in culture; conditions: ATCC 700603, 18 h, ASSAY_TEST Inhibition of Bacterial Growth, detection method Absorption (OD600), MEDIA CAMHB, plate type 384well, NBS, CORNING #3640
Description: Antibacterial activity against Klebsiella pneumoniae MDR ATCC 70063 (CO-ADD:GN_003); MIC in CAMBH media using NBS plates, by OD(600)

[2] = test system: Acinetobacter baumannii; test: microbe, parasite or virus in culture; conditions: ATCC 19606, 18 h, ASSAY_TEST Inhibition of Bacterial Growth, detection method Absorption (OD600), MEDIA CAMHB, plate type 384well, NBS, CORNING #3640
Description: Antibacterial activity against Acinetobacter baumannii ATCC 19606 (CO-ADD:GN_034); MIC in CAMBH media using NBS plates, by OD600

[3] = test system: Staphylococcus aureus; test: microbe, parasite or virus in culture; conditions: ATCC 43300, 18 h, ASSAY_TEST Inhibition of Bacterial Growth, detection method Absorption (OD600), MEDIA CAMHB, plate type 384well, NBS, CORNING #3640
Description: Antibacterial activity against Staphylococcus aureus MRSA ATCC 43300 (CO-ADD:GP_020); MIC in CAMBH media, using NBS plates, by OD(600)

[4] = test system: Candida albicans; test: microbe, parasite or virus in culture; conditions: ATCC 90028, ASSAY_TEST Inhibition of Fungal Growth, detection method Absorption (OD530), plate type 384well, NBS, CORNING #3640
Description: Antifungal activity against Candida albicans ATCC 90028 (CO-ADD:FG_001); MIC in YNB media using NBS plates, by OD630

[5] = test system: Cryptococcus neoformans
Description: Antifungal activity against Cryptococcus neoformans H99 ATCC 208821 (CO-ADD:FG_002); MIC in YNB media using NBS plates, by Resazurin OD(600-570)

[6] = test system: Escherichia coli; test: microbe, parasite or virus in culture; conditions: ATCC 25922, 18 h, ASSAY_TEST Inhibition of Bacterial Growth, detection method Absorption (OD600), MEDIA CAMHB, plate type 384well, NBS, CORNING #3640
Description: Antibacterial activity against Escherichia coli ATCC 25922 (CO-ADD:GN_001); MIC in CAMBH media using NBS plates, by OD(600)

[7] = test system: Pseudomonas aeruginosa; test: microbe, parasite or virus in culture; conditions: ATCC 27853, 18 h, ASSAY_TEST Inhibition of Bacterial Growth, detection method Absorption (OD600), MEDIA CAMHB, plate type 384well, NBS, CORNING #3640
Description: Antibacterial activity against Pseudomonas aeruginosa ATCC 27853 (CO-ADD:GN_042); MIC in CAMBH media using NBS plates, by OD(600)

[8] = test system: HEK293; test: cells; format: functional, Homo sapiens, ATCC CRL1573; conditions: Homo sapiens, ATCC CRL1573, HEK293; ASSAY_TEST Inhibition of Cell Viability; detection method Resazurin; Fluorescence (ex560/em590); MEDIA DMEM with 10% FBS; plate type 384well; TC; CORNING #3712; time 18 hr; read-out: CC50

| SMILES | MIC [1] | MIC [2] | MIC [3] | MIC [4] | MIC [5] | MIC [6] | MIC [7] | CC50 [8] |
| --- | --- | --- | --- | --- | --- | --- | --- | --- |
| CC(=O)Nc1cc(C(=O)Nc2cc(C(=O)Nc3nc(C(=O)NCCCN(C)C)c(CCC(C)C)s3)n(C)c2)n(C)c1 | > 32 µg/mL | > 32 µg/mL | 16 µg/mL | > 32 µg/mL | 16 µg/mL | > 32 µg/mL | > 32 µg/mL | > 32 µg/mL |
| COc1ccc(/C=C/c2ccc(C(=O)Nc3cc(C(=O)Nc4cc(C(=O)NCCN5CCC(O)CC5)n(C)c4)n(C)c3)cn2)cc1.O=C(O)C(F)(F)F.O=C(O)C(F)(F)F | > 32 µg/mL | > 32 µg/mL | > 32 µg/mL | > 32 µg/mL | > 32 µg/mL | > 32 µg/mL | > 32 µg/mL | > 32 µg/mL |
| COCCOC1CCN(C(=O)c2cc(NC(=O)c3cc(NC(=O)c4ccc(/C=C/c5ccc(OC)cc5)nc4)cn3C)cn2C)CC1.O=S(=O)(O)O | > 32 µg/mL | > 32 µg/mL | > 32 µg/mL | > 32 µg/mL | > 32 µg/mL | > 32 µg/mL | > 32 µg/mL | 15.5 µg/mL |
| Cn1cc(NC(=O)c2ccc(/C=C/c3cnc4ccccc4c3)cc2)cc1C(=O)NCCN1CCOCC1.O=C(O)C(F)(F)F.O=C(O)C(F)(F)F | > 32 µg/mL | > 32 µg/mL | 2 µg/mL | > 32 µg/mL | 32 µg/mL | > 32 µg/mL | > 32 µg/mL | 2.42 µg/mL |
| COC(=O)CCC(=O)Nc1cc(C(=O)Nc2cc(C(=O)Nc3nc(C(=O)NCCCN(C)C)c(CCC(C)C)s3)n(C)c2)n(C)c1 | > 32 µg/mL | > 32 µg/mL | > 32 µg/mL | > 32 µg/mL | > 32 µg/mL | > 32 µg/mL | > 32 µg/mL | > 32 µg/mL |
| COc1cccc(/C=C/c2ccc(C(=O)Nc3cc(C(=O)Nc4cc(C(=O)NCCN5CCCCC5)n(CCCc5ccccc5)c4)n(C)c3)cc2)c1.O=C(O)C(F)(F)F | > 32 µg/mL | > 32 µg/mL | > 32 µg/mL | > 32 µg/mL | > 32 µg/mL | > 32 µg/mL | > 32 µg/mL | 16 µg/mL |
| CC(C)n1cc(NC(=O)c2cc(NC(=O)c3ccc(/C=C/c4cnc5ccccc5c4)cc3)cn2C)cc1C(=O)NCCN1CCOCC1.O=C(O)C(F)(F)F.O=C(O)C(F)(F)F | > 32 µg/mL | > 32 µg/mL | 1 µg/mL | 32 µg/mL | 16 µg/mL | > 32 µg/mL | > 32 µg/mL | 2.81 µg/mL |
| CC(C)CCc1sc(NC(=O)c2cc(NC(=O)c3cc(NC(=N)N)cn3C)cn2C)nc1C(=O)NCCCN(C)C.O=C(O)C(F)(F)F.O=C(O)C(F)(F)F | > 32 µg/mL | > 32 µg/mL | 16 µg/mL | > 32 µg/mL | 4 µg/mL | > 32 µg/mL | > 32 µg/mL | 19.9 µg/mL |
| CC(C)c1sc(NC(=O)c2cc(NC(=O)c3cc(NC(=O)c4cc5ccccc5cn4)cn3C)cn2C)nc1C(=O)NCCN1CCOCC1.O=C(O)C(F)(F)F | > 32 µg/mL | > 32 µg/mL | > 32 µg/mL | > 32 µg/mL | 32 µg/mL | > 32 µg/mL | > 32 µg/mL | > 32 µg/mL |
| COc1cccc(/C=C/c2ccc(C(=O)Nc3cc(C(=O)Nc4cc(C(=O)NCCN5CCOCC5)n(C(C)C)c4)n(C)c3)cc2)c1.O=C(O)C(F)(F)F | > 32 µg/mL | > 32 µg/mL | > 32 µg/mL | > 32 µg/mL | > 32 µg/mL | > 32 µg/mL | > 32 µg/mL | 4.31 µg/mL |
| CN(C)CCCNC(=O)c1cc(NC(=O)c2cc(NC(=O)c3cc(NC(=N)c4cc5ccccc5cn4)cn3C)cn2C)cn1C.O=C(O)C(F)(F)F.O=C(O)C(F)(F)F | > 32 µg/mL | > 32 µg/mL | > 32 µg/mL | 32 µg/mL | 8 µg/mL | > 32 µg/mL | > 32 µg/mL | > 32 µg/mL |
| Cn1cc(NC(=O)c2cc(NC=O)cn2C)cc1C(=O)NCCC(=N)N.O=C(O)C(F)(F)F | > 32 µM | > 32 µM | > 32 µM | > 32 µM | > 32 µM | > 32 µM | > 32 µM | > 32 µg/mL |
| COc1ccc(C(=N)Nc2cc(C(=O)Nc3nc(C(=O)NCCN4CCOCC4)c(CCc4ccccc4)s3)n(C)c2)cc1 | > 32 µg/mL | > 32 µg/mL | 16 µg/mL | > 32 µg/mL | 1 µg/mL | > 32 µg/mL | > 32 µg/mL | 7.47 µg/mL (≈ 12.1 µM) |
| Cn1cc(NC(=O)c2cc(NC(=O)c3ccc(/C=C/c4cnc5ccccc5c4)cc3)cn2C)cc1C(=O)NCCN1CCCC1=O.O=C(O)C(F)(F)F | > 32 µg/mL | > 32 µg/mL | > 32 µg/mL | > 32 µg/mL | > 32 µg/mL | > 32 µg/mL | > 32 µg/mL | 12.7 µg/mL |
| CC(=O)Nc1cc(C(=O)Nc2cc(C(=O)NCCC(=N)N)n(C)c2)n(C)c1.O=C(O)C(F)(F)F | > 32 µg/mL | > 32 µg/mL | > 32 µg/mL | > 32 µg/mL | > 32 µg/mL | > 32 µg/mL | > 32 µg/mL | > 32 µg/mL |
| COc1ccc(/C=C/c2ccc(C(=O)Nc3cc(C(=O)Nc4cc(C(=O)NCCN5CCC(OC)CC5)n(C)c4)n(C)c3)cn2)cc1.O=C(O)C(F)(F)F.O=C(O)C(F)(F)F | > 32 µg/mL | > 32 µg/mL | 1 µg/mL | > 32 µg/mL | > 32 µg/mL | > 32 µg/mL | > 32 µg/mL | 2.7 µg/mL |
| CC(C)CCc1sc(NC(=O)c2cc(NC(=O)c3cc(NC(=O)c4sc(N)nc4C(F)(F)F)cn3C)cn2C)nc1C(=O)NCCCN(C)C.O=C(O)C(F)(F)F | > 32 µg/mL | > 32 µg/mL | 8 µg/mL | > 32 µg/mL | > 32 µg/mL | > 32 µg/mL | > 32 µg/mL | 2.48 µg/mL |
| Cn1cc(NC(=O)c2cc(NC(=O)c3ccc(/C=C/c4ccc(F)cc4)cc3)cn2C)cc1C(=O)NCCN1CCOCC1.O=C(O)C(F)(F)F | > 32 µg/mL | > 32 µg/mL | > 32 µg/mL | > 32 µg/mL | > 32 µg/mL | > 32 µg/mL | > 32 µg/mL | > 32 µg/mL |
| COc1ccc(/C=C/c2ccc(C(=O)Nc3cc(C(=O)Nc4nc(C(=O)NCCN5CCOCC5)c(CCc5ccccc5)s4)n(C)c3)cn2)cc1.O=C(O)C(F)(F)F.O=C(O)C(F)(F)F | > 32 µg/mL | > 32 µg/mL | > 32 µg/mL | > 32 µg/mL | > 32 µg/mL | > 32 µg/mL | > 32 µg/mL | > 32 µg/mL |
| CC(C)n1cc(NC(=O)c2cc(NC=O)cn2C)cc1C(=O)Nc1cc(C(=O)NCCCN(C)C)n(C)c1.O=C(O)C(F)(F)F | > 32 µg/mL | > 32 µg/mL | > 32 µg/mL | > 32 µg/mL | > 32 µg/mL | > 32 µg/mL | > 32 µg/mL | > 32 µg/mL |
| Cn1cc(NC(=O)c2cc(NC(=O)C(C)(C)C)cn2C)cc1C(=O)NCCC(=N)N.O=C(O)C(F)(F)F | > 32 µg/mL | > 32 µg/mL | > 32 µg/mL | > 32 µg/mL | > 32 µg/mL | > 32 µg/mL | > 32 µg/mL | 12.3 µg/mL |
| Cn1cc(NC(=O)c2cc(NC(=O)c3ccc(/C=C/c4ccc5ccccc5c4)cc3)cn2C)cc1C(=O)NCCN1CCOCC1.O=C(O)C(F)(F)F | > 32 µg/mL | > 32 µg/mL | > 32 µg/mL | 16 µg/mL | > 32 µg/mL | > 32 µg/mL | > 32 µg/mL | > 32 µg/mL |
